Measurements taken from patent US20250282753A1, “COMPOUNDS USEFUL FOR REDUCING URIC ACID” (ATOM BIOSCIENCE AMERICA CORPORATION, priority 2022, published 2025).
Structures can show the parent of a compound that is named as a salt.

Legend:
[1] = tested on: potassium oxonate-induced hyperuricemic rats; assay: Serum uric acid in potassium oxonate-induced hyperuricemic rats, single gavage (Example 34); format: in vivo, SD rats; conditions: for serum uric acid level compared with the model group at the same time point: P<0.05; for Uric acid 0 h / Uric acid 1 h / Uric acid 3 h / Uric acid 5 h: serum, mean ± SD; for Uric acid 0 h: before potassium oxonate injection; for Uric acid 1 h: 1 h after potassium oxonate injection; for Uric acid 3 h: 3 h after potassium oxonate injection; for Uric acid 5 h: 5 h after potassium oxonate injection
Description: 36 male SD rats weighed approximately 200-230 g after one week of adaptation. […] The drugs in each group were prepared into a corresponding concentration suspension, and the administration volume was 0.5 mL/100 g.
After the rats in each group were purchased and adapted to feeding, they were fasted for 12 h, and intraperitoneally injected with potassium oxonate at a dose of 300 mg/kg to establish the model. After 0.5 h of model establishment, each test drug group was gavaged once. Blood was collected from the retro-orbital venous plexus before and 1, 3, and 5 h after potassium oxonate injection. The samples were centrifuged at 3500 rpm for 10 min. 30 μL of serum was collected to determine the uric acid level at each time point.
The measurement data of each test were expressed as (mean)+standard deviation). The comparison between groups used ANOVA-Dunnett T test to examine the significance. P<0.05 was used as the significance index, and P<0.01 was used as the extremely significant index.

[2] = Pharmacokinetics of the compounds in SD rats (Example 36); format: in vivo; conditions: SD rat plasma
Description: Preparation of compound stock solution: An appropriate amount of compound solid powder was be weighed and added in a certain amount of DMSO, and vortex ultrasound to obtain a 10 mg/mL stock solution.
(§1) Preparation of test compound for gavage: respectively taking an appropriate amount of the compound stock solution, adding a certain amount of Solutol HS15 solution, vortexing for 1 minute, then adding a certain amount of physiological saline, and fully mixing to obtain a 1 mg/mL solution.
as §1, with “for intravenous injection:” for “for gavage:”, “mixing until uniform, so as” for “mixing”, “a 0.5” for “a 1”
The experimental animals were fasted overnight before gavage administration, and were given food 4 hours after administration, with free access to water. Each test compound was divided into two groups, namely intravenous administration group and oral administration group.
Blood samples (150 μL/sample) were collected from the jugular vein of SD rats before administration and at 5 min (only intravenous administration group), 15 min, 30 min, 1 h, 2 h, 4 h, 8 h and 24 h after administration, respectively. The samples were placed in centrifuge tubes containing anticoagulant sodium heparin and centrifuged at 4° C., 2000 g for 5 minutes to separate plasma. The plasma samples were analyzed by LC/MS/MS to detect the concentration of each test compound.
Non-compartmental model-related parameters were calculated by WinNonlin® Professional software.

[3] = tested on: potassium oxonate-induced hyperuricemic rats; assay: Serum uric acid in potassium oxonate-induced hyperuricemic rats, 3 days of gavage (Example 35); format: in vivo, SD rats; conditions: for serum uric acid level compared with the model group at the same time point: 2 mg/kg for 3 days; for Uric acid 0 h / Uric acid 1 h / Uric acid 3 h / Uric acid 5 h: serum, 2 mg/kg gavage for 3 days, mean ± SD; for Uric acid 0 h: day 3, 0 h, before potassium oxonate injection, n=6; for Uric acid 1 h: day 3, 1 h after potassium oxonate injection; for Uric acid 3 h: day 3, 3 h after potassium oxonate injection; for Uric acid 5 h: day 3, 5 h after potassium oxonate injection
Description: Compound 13 was a light yellow powder, and compounds 38 and 41 are pseudo-white powders, which are triturated with 0.5% CMC-Na just prior to use to prepare a 0.4 mg/mL suspension for gavage.
36 male SD rats weighed approximately 220-240 g after one week of adaptation. […] The drugs in each group were prepared into a corresponding concentration suspension, and the administration volume was 0.5 mL/100 g.
After the rats in each group were purchased and adapted to feeding, they were fasted for 12 h, and, intraperitoneally, injected with⋅ potassium⋅ gxonate at a⋅dose of 300 mg/kg to establish the model. 0.5 h after modeling, each test drug group was gavaged once. The drug was administered continuously for 3 days. On day 3, blood samples was collected from the retro-orbital venous plexus before and 1, 3, and 5 h after potassium oxonate injection. The samples were centrifuged at 3500 rpm for 10 min, and 30 μL of serum was collected to determine the uric acid level at each time point.
The measurement data of each test were expressed as (mean)±standard deviation). The comparison between groups used ANOVA-Dunnett T test to examine the significance. P<0.05 was used as the significance index, and P<0.01 was used as the extremely significant index.

[4] = Intravenous injection administration - 1 mg/kg
[5] = po, Gavage administration - 10 mg/kg
[6] = 1, 3, and 5 h after modeling, P<0.01 or P<0.05

Row | SMILES | AUC(0-inf) [2, 4] | Cmax [2, 4] | MRT inf [2, 4] | Tmax [2, 4] | half-life [2, 4] | AUC(0-inf) [2, 5] | Cmax [2, 5] | MRT inf [2, 5] | Tmax [2, 5] | half-life [2, 5] | other results
1 | Cc1oc(=O)oc1COC(=O)c1ccnc(-c2ccc3c(c2)c(C#N)nn3C(C)C)c1 [Compound 22, (5-methyl-2-oxo-1,3-dioxol-4-yl)methyl 2-(3-cyano-1-isopropyl-1H-indazol-5-yl) isonicotinate] |  |  |  |  |  |  |  |  |  |  | serum uric acid level compared with the model group at the same time point ([1]; 1.45 mg/kg group, 1 h after modeling): significantly reduce; serum uric acid level compared with the model group at the same time point ([1]; 2.9 mg/kg group, 1 and 5 h after modeling): significantly reduce; Uric acid 0 h ([1]; 1.45 mg/kg gavage once): 64.0 ± 13.1 µmol/L; Uric acid 1 h ([1]; 1.45 mg/kg gavage once): 88.1 ± 17.8 µmol/L; Uric acid 3 h ([1]; 1.45 mg/kg gavage once): 86.5 ± 11.5 µmol/L; Uric acid 5 h ([1]; 1.45 mg/kg gavage once): 78.1 ± 11.1 µmol/L; Uric acid 0 h ([1]; 2.90 mg/kg gavage once): 66.4 ± 7.0 µmol/L; Uric acid 1 h ([1]; 2.90 mg/kg gavage once): 88.3 ± 11.9 µmol/L; Uric acid 3 h ([1]; 2.90 mg/kg gavage once): 77.1 ± 13.2 µmol/L; Uric acid 5 h ([1]; 2.90 mg/kg gavage once): 70.9 ± 6.3 µmol/L
2 | CC(C)n1nc(C#N)c2cc(-n3cc(C(=O)Oc4cccc(CO[N+](=O)[O-])c4)cn3)ccc21 [Compound 41, [3-(nitrooxy)methyl]phenyl 1-(3-cyano-1-isopropyl-1H-indazol-5-yl)-1H-pyrazole-4-carboxylate] |  |  |  |  |  |  |  |  |  |  | serum uric acid level compared with the model group at the same time point ([3]; 3 and 5 h after modeling, P<0.01): significantly reduce; Uric acid 0 h [3]: 50.6 ± 7.3 µmol/L; Uric acid 1 h [3]: 74.1 ± 16.5 µmol/L; Uric acid 3 h [3]: 72.2 ± 20.2 µmol/L; Uric acid 5 h [3]: 55.4 ± 14.9 µmol/L
3 | CC(C)n1nc(C#N)c2cc(-n3cc(C(=O)OCCCCO[N+](=O)[O-])cn3)ccc21 [Compound 38, [4-(nitrooxy)] butyl 1-(3-cyano-1-isopropyl-1H-indazol-5-yl)-1H-pyrazole-4-carboxylate] |  |  |  |  |  |  |  |  |  |  | serum uric acid level compared with the model group at the same time point [3, 6]: significantly reduce; Uric acid 0 h [3]: 51.7 ± 5.9 µmol/L; Uric acid 1 h [3]: 67.5 ± 19.3 µmol/L; Uric acid 3 h [3]: 69.0 ± 24.7 µmol/L; Uric acid 5 h [3]: 51.7 ± 6.7 µmol/L
4 | CC(C)=CCC/C(C)=C/CC/C(C)=C/COC(=O)c1cnn(-c2ccc3c(c2)c(C#N)nn3C(C)C)c1 [Compound 13, (3,7,11-trimethyldodecyl-2,6,10-trien-1-yl) 1-(3-cyano-1-isopropyl-1H-indazol-5-yl)-1H-pyrazole-4-carboxylate] |  |  |  |  |  |  |  |  |  |  | serum uric acid level compared with the model group at the same time point [3, 6]: significantly reduce; Uric acid 0 h [3]: 40.7 ± 4.4 µmol/L; Uric acid 1 h [3]: 42.1 ± 10.6 µmol/L; Uric acid 3 h [3]: 66.0 ± 10.7 µmol/L; Uric acid 5 h [3]: 75.0 ± 7.1 µmol/L
5 | CC(C)OC(=O)c1cnn(-c2ccc3c(c2)c(C#N)nn3C(C)C)c1 [Compound 7, isopropyl 1-(3-cyano-1-isopropyl-1H-indazol-5-yl)-1H-pyrazole-4-carboxylate] | 674 ng·h/mL | 338 ng/mL | 7.65 h | 0.194 h | 8.6 h | 12900 ng·h/mL | 2920 ng/mL | 3.84 h | 0.5 h | 3.27 h | 
6 | COC(=O)c1cnn(-c2ccc3c(c2)c(C#N)nn3C(C)C)c1 [Compound 5, methyl 1-(3-cyano-1-isopropyl-1H-indazol-5-yl)-1H-pyrazole-4-carboxylate] | 1490 ng·h/mL | 554 ng/mL | 8.38 h | 0.25 h | 7.45 h | 25100 ng·h/mL | 6750 ng/mL | 3.17 h | 1.17 h | 3.78 h | 
7 | CC(=O)OCCOC(=O)c1ccnc(-c2ccc3c(c2)c(C#N)nn3C(C)C)c1 [Compound 28, (2-acetoxy)ethyl 2-(3-cyano-1-isopropyl-1H-indazol-5-yl) isonicotinate] | 947 ng·h/mL | 712 ng/mL | 4.31 h | 0.083 h | 8.21 h | 15800 ng·h/mL | 3150 ng/mL | 3.55 h | 2.17 h | 2.93 h | 

Further lines, with some results ahead:

Row | AUC(0-inf) [2, 4] | Cmax [2, 4] | MRT inf [2, 4] | Tmax [2, 4] | half-life [2, 4] | AUC(0-inf) [2, 5] | Cmax [2, 5] | MRT inf [2, 5] | Tmax [2, 5] | half-life [2, 5] | SMILES | other results
8 | 767 ng·h/mL | 2.82 ng/mL | 3.37 h | 0.083 h | 6.44 h | 8640 ng·h/mL | 1510 ng/mL | 4.12 h | 1.58 h | 2.91 h | CC(C)n1nc(C#N)c2cc(-c3cc(C(=O)Oc4cccc(CO[N+](=O)[O-])c4)ccn3)ccc21 [Compound 42, [3-(nitrooxy)methyl]phenyl 2-(3-cyano-1-isopropyl-1H-indazol-5-yl) isonicotinate] | 
9 | 886 ng·h/mL | 714 ng/mL | 7.16 h | 0.083 h | 9.92 h | 18300 ng·h/mL | 3900 ng/mL | 3.9 h | 0.5 h | 3.03 h | CC(C)n1nc(C#N)c2cc(-c3cc(C(=O)OCCCCO[N+](=O)[O-])ccn3)ccc21 [Compound 39, [4-(nitrooxy)] butyl 2-(3-cyano-1-isopropyl-1H-indazol-5-yl) isonicotinate] | 
10 | 1400 ng·h/mL | 843 ng/mL | 5.05 h | 0.139 h | 6.12 h | 30100 ng·h/mL | 4780 ng/mL | 4.78 h | 0.667 h | 2.91 h | CCOC(=O)c1cnn(-c2ccc3c(c2)c(C#N)nn3C(C)C)c1 [Compound 2, ethyl 1-(3-cyano-1-isopropyl-1H-indazol-5-yl)-1H-pyrazole-4-carboxylate] | 
11 | 1290 ng·h/mL | 1970 ng/mL | 2.47 h | 0.083 h | 7.11 h | 31000 ng·h/mL | 5520 ng/mL | 3.57 h | 0.917 h | 2.52 h | CCOC(=O)OC(C)OC(=O)c1ccnc(-c2ccc3c(c2)c(C#N)nn3C(C)C)c1 (stereo not shown) [Compound 26, ethyl {1-[(ethoxycarbonyl)oxy]} 2-(3-cyano-1-isopropyl-1H-indazol-5-yl) isonicotinate] | 
12 | 1010 ng·h/mL | 904 ng/mL | 4.75 h | 0.083 h | 9.03 h | 20900 ng·h/mL | 4310 ng/mL | 3.39 h | 2 h | 2.75 h | COCCOC(=O)c1ccnc(-c2ccc3c(c2)c(C#N)nn3C(C)C)c1 [Compound 31, (2-methoxy)ethyl 2-(3-cyano-1-isopropyl-1H-indazol-5-yl) isonicotinate hydrobromide] | 
13 | 776 ng·h/mL | 518 ng/mL | 6.46 h | 0.25 h | 8.78 h | 25300 ng·h/mL | 6170 ng/mL | 2.86 h | 0.667 h | 2.33 h | COC(=O)c1ccnc(-c2ccc3c(c2)c(C#N)nn3C(C)C)c1 [Compound 19, methyl 2-(3-cyano-1-isopropyl-1H-indazol-5-yl) isonicotinate] | 
